Reference: US7897592B2, “HIV integrase inhibitors” (priority 2005, dated 2011)
pIC50: −log10 of the molar value.

Biological target: T1, HIV-integrase (recombinant integrase) (Human immunodeficiency virus type 1 group M subtype B, UniProt P12497)
T1 construct: Recombinant integrase (0.26 ng) was incubated with the beads
Experiment: HIV-Integrase Inhibition Activity (SPA bead strand-transfer assay)
Format: biochemical
Details: biotin labeled substrate DNA on SPA beads, P33 labeled target DNA, read-out: Activity (IC50 against HIV-integrase)
Protocol: HIV-Integrase Inhibition Activity. To evaluate in-vitro activity against HIV-integrase, 5 pmole of biotin labeled substrate DNA was bound to 100 μg of Streptavidin coated PVT SPA beads (Amersham Pharmacia Biotech). Recombinant integrase (0.26 ng) was incubated with the beads for 90 min at 37° C. Unbound enzyme was removed by washing the complex followed by addition of inhibitors and 0.1 fmol of P33 labeled target DNA. The reaction was stopped by adding EDTA to a final concentration of 10 mM. Samples were counted in TopCountNXT (Packard) and the CPM was used as a measure of integration. The reaction condition was as described in A. Engelman and R. Craigie, J. Virol. 69, 5908-5911 (1995). The sequences of substrate and target DNA were described in Nucleic Acid Research 22, 1121-1122 (1994). Activity equal to A refers to a compound having IC50=0.002 to 0.10 μM while B and C denote compounds having IC50=0.1 to 1.0 μM and IC50≧1.0 μM respectively.

`O=C(NCc1ccc(F)cc1-n1cncn1)c1nc2n(c(=O)c1O)CCS(=O)(=O)C21CCCC1` [Example 13, Spiro[cyclopentane-1,9′(4′H)-pyrimido[2,1-c][1,4]thiazine]-2′-carboxamide, N-[[4-fluoro-2-(1H-1,2,4-triazol-1-yl)phenyl]methyl]-6′,7′-dihydro-3′-hydroxy-4′-oxo-, 8′,8′-dioxide] was tested. Which pIC50 did it give?
Its pIC50 is 7.00 to 8.70.

How did the pIC50 turn out when `O=C(NCc1ccc(F)cc1)c1nc2n(c(=O)c1O)CCS(=O)(=O)C21CCOCC1` [Example 16, Spiro[4H-pyran-4,9′(4′H)-pyrimido[2,1-c][1,4]thiazine]-2′-carboxamide, N-[(4-fluorophenyl)methyl]-2,3,5,6,6′,7′-hexahydro-3′-hydroxy-4′-oxo-, 8′,8′-dioxide] was run?
Its pIC50 is 7.00 to 8.70.

With `O=C(NCc1ccc(F)cc1)c1nc2n(c(=O)c1O)CCCS(=O)(=O)C21CCOCC1` [Example 26, Spiro[4H-pyran-4,10′(4′H)-[6H]pyrimido[2,1-c][1,4]thiazepine]-2′-carboxamide, N-[(4-fluorophenyl)methyl]-2,3,5,6,7′,8′-hexahydro-3′-hydroxy-4′-oxo-, 9′,9′-dioxide] as the compound, how does the pIC50 read?
Its pIC50 is 7.00 to 8.70.
